Source: patent US8753570B2, “Structure, synthesis, and applications for oligo phenylene ethynylenes” (STC.UNM, priority 2008, dated 2014)

Key:
[1] = Fluorescence quantum yields and fluorescence lifetimes in water and methanol; format: physicochemical; conditions: for φf in CH3OH / φf in H2O / τ (ns): Table 2; for τ (ns): fluorescence lifetime; for fluorescence quantum efficiency: in water, quinine sulfate standard; for Φf / τf (ns): Table 1
Source text: (§1) While the synthetic steps are all straight-forward, those involving conversion of the diiodobenzene to 4-(4-iodophenyl)-2-methyl-3-butyn-2-ol occur with lower yields and the desired products must be separated from structurally similar byproducts. The alkylamino groups were attached in an early step but converted to the quaternary ammonium derivatives as the last step of the synthesis. The intermediates and final products were characterized by mass spectrometry and proton and carbon NMR. […]
The absorption and fluorescence in methanol occur at very similar wavelengths. In both solvents there is no concentration dependence of the spectra in the micromolar range and it seems likely that in both solvents the N-OPE are monomeric. […] Fluorescent lifetimes in water are correspondingly shorter than in methanol.
Three symmetrical molecules, S-OPE-1 (H), S-OPE-1 (COOEt) and S-OPE-1 (COO—) show similar two-banded absorption spectra in water and methanol.
(§2) The spectra are concentration independent in the micromolar concentration range and there is a small red shift in the series: S-OPE-1 (H), N-OPE-1=S-OPE-1 (COO—), S-OPE-1 (COOEt). […] Furthermore, we have also synthesized and carried out studies of S-OPE-1 (x) where x=NH2, COCH3, both of these compounds show similar absorption spectra to that of S-OPE-1 (COOEt). The fluorescence of all four compounds shown in Table 2 is strong in methanol and there is little variation in fluorescence efficiency among the different substituted derivatives. However there is a significant variation in the fluorescence efficiencies in aqueous solution ranging from 0.02 for S-OPE-1 (COOEt) to 0.80 for S-OPE-1 (H). […] Clearly the ester groups in N-OPE-1 and S-OPE-1 (COOEt) must play a major role in a solvent-dependent process which deactivates the excited singlet of the oligomers in water. Nanosecond transient absorption spectroscopy was carried out on the OPEs in order to monitor the triplet states. […] The transient lifetimes and spectra are consistent with a triplet state assignment. The 1max of triplet-triplet absorption shifts from 518 nm to 569 nm following the extent of conjugation: S-OPE1-H (518 nm), N-OPE-1 (533 nm), S-OPE-1 (COO—) (557 nm), then S-OPE-1 (COOEt) (569 nm). The apparent triplet yields decrease in the order of S-OPE-1 (H)>S-OPE-1 (COO—)>>N-OPE-1>>S-OPE-1 (COOEt). The triplet lifetimes follow a similar trend as the triplet yield (Table 2).

[2] = Nanosecond transient absorption spectroscopy (triplet state lifetime); format: physicochemical; conditions: aqueous solution
Source text: as §2

[3] = tested on: Pseudomonas aeruginosa Strain PAO1; experiment: Dark and light activated biocidal activity; format: cell-based; conditions: for biocidal activity: in solution and attached to surfaces; for light activated biocidal activity: short term irradiation with near ultraviolet light
Source text: The OPEs described herein have been synthesized and studied as dark and light activated biocides towards a Gram negative bacterium, Pseudomonas aeruginosa Strain PAO1. […] N-OPE-1 has been attached to surfaces by covalent linkage. This has been accomplished for both micron sized glass beads and glass slides.

[4] = Solubility in water and polar organic solvents; format: physicochemical; conditions: water and polar organic solvents such as methanol
Source text: as §1

[5] = Self-assembly / complex formation on carboxymethylcellulose (absorption, fluorescence); format: binding; conditions: two-state model, dimer assumed; estimated from absorbances
Source text: N-OPE:CMC complexes can be formed by adding small aliquots of CMC to aqueous solutions containing the N-OPE compound. […] [N-OPE-1]=1.5×10^−5M. […] [N-OPE-2]=1.5×10^−5 and [CMC]=0-4.2×10^−5M. Both excitation and emission slits are 2.5 nm. Excitation wavelength for N-OPE-1 is 355 nm and for N-OPE-2 is 375 nm. For both N-OPEs there are several isosbestic points in the absorption spectra as the two bands in the absorption for water alone are replaced by a spectrum of the N-OPE:CMC having two bands at longer wavelength. For both N-OPEs the fluorescence also undergoes a red shift and increase in intensity as aliquots of CMC are added, finally leveling off at moderate concentrations (greater than 1 mM) of CMC. […]
Binding constants (assuming that an N-OPE dimer is formed in each case) can be estimated from a determination of the individual absorbances of the two species following a treatment for a similar two-state system developed by Pasternack and co-workers. […]
Self-assembly is not limited solely to the non-symmetrical N-OPE compounds. […] The changes that occur for S-OPE-1 (H), N-OPE-1 and S-OPE-1 (COOEt) (sharp, red shifted absorption spectra, isosbestic points maintained throughout the CMC addition and red-shifted fluorescence) are consistent with an extension of effective conjugation for the oligomers on the carboxylate decorated surface of the CMC.

[6] = suspensions of Pseudomonas, much slower than light-activated
[7] = exposed to bacteria in the dark, up to one hour

SMILES | φf in CH3OH [1] | φf in H2O [1] | τ (ns) ([1]; column after φf in CH3OH) | τ (ns) ([1]; column after φf in H2O) | τTA (μs) [2] [μs] | dark biocidal activity [3, 7] | biocidal activity [3] | light activated biocidal activity [3] | other results
C[N+](C)(C)CCCOc1cc(C#Cc2ccccc2)c(OCCC[N+](C)(C)C)cc1C#Cc1ccccc1.[Cl-].[Cl-] [S-OPE-1 (H)] | 0.82 | 0.80 | 1.4 | 1.6 | 216 |  |  |  | fluorescence efficiency in aqueous solution [1]: 0.80; light-activated biocidal activity (rank) ([3]; suspensions of Pseudomonas): S-OPE-1 (x=H)<S-OPE-2 (x=H)
C[N+](C)(C)CCCOc1cc(C#Cc2ccc(C#Cc3cc(OCCC[N+](C)(C)C)c(C#Cc4ccc(C#Cc5cc(OCCC[N+](C)(C)C)c(C#Cc6ccccc6)cc5OCCC[N+](C)(C)C)cc4)cc3OCCC[N+](C)(C)C)cc2)c(OCCC[N+](C)(C)C)cc1C#Cc1ccccc1.[Cl-].[Cl-].[Cl-].[Cl-].[Cl-].[Cl-] [S-OPE-3 (x=H)] |  |  |  |  |  |  |  |  | dark biocidal activity [3, 6]: observed
CCOC(=O)c1ccc(C#Cc2cc(OCCC[N+](C)(C)C)c(C#Cc3ccc(C(=O)OCC)cc3)cc2OCCC[N+](C)(C)C)cc1.[Cl-].[Cl-] [S-OPE-1 (COOEt)] | 0.75 | 0.023 | 1.4 | 1.0 | 77 |  |  |  | fluorescence efficiency in aqueous solution [1]: 0.02
C[N+](C)(C)CCCOc1cc(C#Cc2ccc(C#Cc3cc(OCCC[N+](C)(C)C)c(C#Cc4ccccc4)cc3OCCC[N+](C)(C)C)cc2)c(OCCC[N+](C)(C)C)cc1C#Cc1ccccc1.[Cl-].[Cl-].[Cl-].[Cl-] [S-OPE-2 (x=H)] |  |  |  |  |  |  |  |  | light-activated biocidal activity (rank) ([3]; suspensions of Pseudomonas): S-OPE-1 (x=H)<S-OPE-2 (x=H); dark biocidal activity [3, 6]: observed
C[N+](C)(C)CCCOc1cc(C#Cc2ccc(C(=O)[O-])cc2)c(OCCC[N+](C)(C)C)cc1C#Cc1ccc(C(=O)[O-])cc1 [S-OPE-1 (COO—)] | 0.74 | 0.70 | 1.3 | 1.5 | 136 |  |  |  | 
CCOC(=O)c1ccc(C#Cc2cc(OCCC[N+](C)(C)C)c(C#Cc3ccc(C#Cc4cc(OCCC[N+](C)(C)C)c(C#Cc5ccccc5)cc4OCCC[N+](C)(C)C)cc3)cc2OCCC[N+](C)(C)C)cc1.[Cl-].[Cl-].[Cl-].[Cl-] [N-OPE-2] |  |  |  |  |  | active against bacteria both in the dark and in the light | active biocides both in solution and attached to surfaces | active against bacteria both in the dark and in the light | fluorescence quantum efficiency [1]: over 1%; Φf ([1]; solvent H2O): 0.012; τf (ns) ([1]; solvent H2O): 0.37 ns; Φf ([1]; solvent Methanol): 0.68; τf (ns) ([1]; solvent Methanol): 0.92 ns; solubility [4]: readily soluble in water and polar organic solvents such as methanol
CCOC(=O)c1ccc(C#Cc2cc(OCCC[N+](C)(C)C)c(C#Cc3ccccc3)cc2OCCC[N+](C)(C)C)cc1.[Cl-].[Cl-] [N-OPE-1] | 0.68 | 0.15 | 1.6 | 1.5 | 107 | relatively inactive | active biocides both in solution and attached to surfaces | active as a biocide | fluorescence quantum efficiency [1]: ~15%; Φf ([1]; solvent H2O): 0.147; τf (ns) ([1]; solvent H2O): 0.78 ns; Φf ([1]; solvent Methanol): 0.68; τf (ns) ([1]; solvent Methanol): 1.57 ns; binding constant K, CMC:(N-OPE)2 [5]: less accurate and slightly lower; solubility [4]: readily soluble in water and polar organic solvents such as methanol
CCOC(=O)c1ccc(C#Cc2cc(OCCC[N+](C)(C)C)c(C#Cc3ccc(C#Cc4cc(OCCC[N+](C)(C)C)c(C#Cc5ccc(C#Cc6cc(OCCC[N+](C)(C)C)c(C#Cc7ccccc7)cc6OCCC[N+](C)(C)C)cc5)cc4OCCC[N+](C)(C)C)cc3)cc2OCCC[N+](C)(C)C)cc1.[Cl-].[Cl-].[Cl-].[Cl-].[Cl-].[Cl-] [N-OPE-3] |  |  |  |  |  | active against bacteria both in the dark and in the light | active biocides both in solution and attached to surfaces | active against bacteria both in the dark and in the light | 
